# Measured values published in article PMC8599359 (Molecular Neurobiology, 2021).
# “Also recorded” adds a separate entry of the source.
# Tests used:
# THP-1 cells = experiment: MTT cytotoxicity assay; assay type: cell-based; conditions: THP-1 cells, 1, 10 or 100 µM, 18 h
# Description: THP-1 cells were plated in 96-well plates at a density of 0.08 × 10^6 cells per well. […] Vehicle-treated cells were used as controls. For each treatment, twelve samples were utilized. Cells were washed with PBS and incubated with 100 μL/well of MTT solution (5 mg/mL) for 45 min at 37 °C. After incubation, MTT solution was removed, and DMSO (200 μL) was added to each well. Absorbance was measured at 490 nm on a Molecular Devices SpectraMax M3 plate reader with SoftMax […].2 software (Sunnyvale, CA). Absorbance was compared to that of control cells to determine cytotoxicity.
# [1] = Embryo phenotype assessments; assay type: in vivo, mouse; conditions: female, C3H/HeJ, mouse, in vivo, oral; GD 16.5, 50 mg/kg/day; read-out: Total viable embryos (%)
# From the text: (§1) For all animal experiments, C3H/HeJ (10–12 weeks of age, male and female) were purchased from the Jackson Laboratory (Bar Harbor, ME), and were housed in microisolator cages containing autoclaved corncob bedding, and maintained on a 12‐h light‐dark cycle in climate‐controlled laboratory animal facilities approved by the University of Nebraska Medical Center Institutional Animal Care and Use Committee (IACUC). Mice were given free access to irradiated rodent feed (TD. 180,911, Envigo Teklad diet, Madison, WI) and sterile water. Animals were acclimated to the environment for approximately 7–14 days to determine that they were healthy based on observed behavior and weight gain. A female was placed with a male overnight for the purpose of timed matings. The following morning males were removed from the cages and positive vaginal plugs were identified. […] The time of conception was considered to be midnight on the evening of the mating. Treatment of plugged females was started at the morning of the day of plug detection (gestation day (GD) 0.5). […] Pregnant dams were randomly assigned to DTG or vehicle (control) group. Weight gain in dams was measured on GD 0.5, 5.5, 10.5, and 15.5. At GD 16.5, dams were humanely euthanized, and embryos and placenta were harvested. Embryos were evaluated for NTDs. At the time of harvest, the total number of implants (litter size, resorption rates, or viable embryos) was recorded for each pregnancy. Further, whole brain tissues from normal viable embryos were isolated and processed for examination of MMP expression and activity.
# [2] = tested on: pregnant C3H/HeJ mice, embryos; experiment: Embryo phenotype assessments; assay type: in vivo, mouse
# From the text: as §1
# HIV-1 integrase = conditions: read-out: IC50 as INSTI; cited from earlier work
# MMP-2 = target: T1, MMP-2 (Homo sapiens, UniProt P08253); experiment: Fluorometric substrate assay (MMP inhibitor profiling kit); assay type: biochemical; design: purchased Enzo life sciences BML-AK308
# T1 sequence (P08253 110-660): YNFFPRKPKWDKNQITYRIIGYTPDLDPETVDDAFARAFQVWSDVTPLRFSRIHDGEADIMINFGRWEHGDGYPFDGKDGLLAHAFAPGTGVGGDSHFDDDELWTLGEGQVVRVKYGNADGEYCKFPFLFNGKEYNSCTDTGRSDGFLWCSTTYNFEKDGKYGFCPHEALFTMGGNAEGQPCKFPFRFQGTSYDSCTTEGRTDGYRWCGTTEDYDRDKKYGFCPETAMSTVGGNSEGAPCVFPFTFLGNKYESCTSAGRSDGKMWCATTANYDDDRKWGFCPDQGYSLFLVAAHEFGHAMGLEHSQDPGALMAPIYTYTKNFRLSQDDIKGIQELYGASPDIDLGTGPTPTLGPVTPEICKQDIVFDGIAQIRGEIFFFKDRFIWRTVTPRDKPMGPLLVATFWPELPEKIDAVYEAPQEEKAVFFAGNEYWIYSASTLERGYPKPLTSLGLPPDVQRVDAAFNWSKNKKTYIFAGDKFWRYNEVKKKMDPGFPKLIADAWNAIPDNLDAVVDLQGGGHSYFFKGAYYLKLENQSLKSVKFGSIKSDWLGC
# Description: (§2) Kit contained a panel of ten MMPs and a quenched fluorogenic substrate OMNIMMP® RED. Composition of a quenched fluorogenic substrate was TQ3-GABA-Pro-Cha-Abu-Smc-His-Ala-Dab(6’-TAMRA)-Ala-Lys-NH2 [TQ3 = quencher; GABA = 4-aminobutyric acid; Cha = L-cyclohexylalanine; Abu = 2-aminobutyric acid; Smc = S-methyl-L-cysteine; Dab = 2,4-diaminobutyric acid; 6’-TAMRA = 6’-tetramethylrhodamine]. Experiment was performed as per instructions provided in the manufacturer’s manual. The assays were performed in a 96-well, black, flat, microplate format. The compound NNGH was provided as a prototypic control inhibitor. […] Untreated MMPs were used as control. The experiment was performed in biological triplicates. After 60-min incubation, fluorogenic substrate OMNIMMP® RED was added to each reaction/well to start the reaction. The plate was continuously read at Ex/Em = 545/576 nm (cutoff at 570 nm) for 30 min with 1-min time intervals at constant temperature, 37 °C, using Molecular Devices SpectraMax M3 plate reader with SoftMax Pro 6.2 software.
# MMP-9 = MMP-9 (Homo sapiens, UniProt P14780); experiment: as above; assay type: biochemical; design: purchased Enzo life sciences BML-AK308
# Chain of MMP-9 (P14780 94-707): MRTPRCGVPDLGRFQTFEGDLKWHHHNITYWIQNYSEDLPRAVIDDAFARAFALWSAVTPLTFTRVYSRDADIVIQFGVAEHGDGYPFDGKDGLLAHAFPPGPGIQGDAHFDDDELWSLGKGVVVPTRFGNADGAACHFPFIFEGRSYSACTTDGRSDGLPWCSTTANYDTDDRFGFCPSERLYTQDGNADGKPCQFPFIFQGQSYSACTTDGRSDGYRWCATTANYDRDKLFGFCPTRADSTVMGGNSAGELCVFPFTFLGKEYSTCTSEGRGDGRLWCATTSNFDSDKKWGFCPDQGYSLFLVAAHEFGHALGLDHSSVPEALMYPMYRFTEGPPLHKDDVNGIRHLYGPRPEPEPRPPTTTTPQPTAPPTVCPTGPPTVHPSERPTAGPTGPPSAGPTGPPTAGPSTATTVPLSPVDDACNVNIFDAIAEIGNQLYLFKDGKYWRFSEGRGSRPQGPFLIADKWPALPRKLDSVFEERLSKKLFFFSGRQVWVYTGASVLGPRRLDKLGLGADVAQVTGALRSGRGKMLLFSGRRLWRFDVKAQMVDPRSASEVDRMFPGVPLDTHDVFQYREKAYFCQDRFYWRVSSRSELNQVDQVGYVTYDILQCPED
# Description: as §2
# [3] = GD 16.5, 50 mg/kg/day, of 103 viable
# [4] = GD 16.5, 50 mg/kg/day, of 130 implants
compound,measurement,setting,value
"C[C@@H]1CCO[C@H]2Cn3cc(C(=O)NCc4ccc(F)cc4F)c(=O)c(O)c3C(=O)N12 [DTG, Dolutegravir]","Cytotoxicity (cellular viability, MTT)",THP-1 cells,Cytotoxicity was not observed at any concentration; also recorded: no DTG-induced cytotoxicity
same,viability,[1],79.2%
same,maternal body weight gain during gestation,"[2]; 50 mg/kg/day oral GD 0.5-15.5, DTG vs control",No differences
same,Abnormal/litter,"[2]; GD 16.5, 50 mg/kg/day",0.05
same,Implants/litter (mean litter size),"[2]; GD 16.5, 50 mg/kg/day",7.6
same,Resorptions/litter,"[2]; GD 16.5, 50 mg/kg/day",1.5
same,Total resorptions (%),"[2]; GD 16.5, 50 mg/kg/day",20.76%
same,Viable embryos/litter,"[2]; GD 16.5, 50 mg/kg/day",6.05
same,Total implants,"[2]; GD 16.5, 50 mg/kg/day, 17 litters",130
same,"Viable embryos abnormal, exencephaly (number)",[2]; [3],1
same,Viable embryos normal (number),[2]; [3],102
same,Total resorptions (number),[2]; [4],27
same,Total viable embryos (number),[2]; [4],103
same,IC50,HIV-1 integrase,0.0027 µM
same,inhibitory effect compared to doxycycline,"MMP-2; MMP-2, 20 µM",higher inhibitory effect
same,IC50,"MMP-2; human recombinant MMP-2, 60 min preincubation, four-parameter fit",16.9 µM
same,inhibitory effect compared to doxycycline,"MMP-9; MMP-9, 20 µM",higher inhibitory effect
same,IC50,"MMP-9; human recombinant MMP-9, 60 min preincubation, four-parameter fit",11.1 µM
